“And” between values parts separate entries of the source, which are not always exact repeats. Equal values may be shown once. The source made the active and inactive calls. The rule behind the calls is not given here.
Key:
[1] = system: HGC-27; assay: Induction of apoptosis in human HGC-27 cells assessed as upregulation in Bax expression at 0.5 to 8 uM incubated for 48 hrs by Western blot analysis; format: functional, cell-based; details: dose 0.5-8 µM
[2] = system: MGC-803; assay: Induction of cell cycle arrest in human MGC-803 cells assessed as reduction in accumulation of cells at G2/M phase at 2.5 to 10 uM incubated for 24 hrs by PI staining based flow cytometry analysis; format: functional; details: dose 2.5-10 µM
[3] = system: HGC-27; assay: Induction of apoptosis in human HGC-27 cells assessed as necrotic cells at 2 uM incubated for 48 hrs by annexin V FITC/propidium iodide staining based flow cytometry (reference value: 1.24 %); format: functional
[4] = system: HGC-27; assay: Induction of apoptosis in human HGC-27 cells assessed as early apoptotic cells at 8 uM incubated for 48 hrs by annexin V FITC/propidium iodide staining based flow cytometry (reference value: 0.66 %); format: functional
[5] = system: HGC-27; assay: Induction of cell cycle arrest in human HGC-27 cells assessed as reduction in accumulation of cells at G0/G1 phase at 0.5 to 8 uM incubated for 24 hrs by PI staining based flow cytometry analysis; format: functional; details: dose 0.5-8 µM
[6] = system: HGC-27; assay: Induction of cell cycle arrest in human HGC-27 cells assessed as upregulation of p21 expression at 0.5 to 8 uM incubated for 48 hrs by Western blot analysis; format: functional, cell-based; details: dose 0.5-8 µM
[7] = system: HGC-27; assay: Induction of apoptosis in human HGC-27 cells assessed as early apoptotic cells at 2 uM incubated for 48 hrs by annexin V FITC/propidium iodide staining based flow cytometry (reference value: 0.66 %); format: functional
[8] = Toxicity in BALB/c mouse xenografted with human HGC-27 cells assessed as granulocyte level at 150 mg/kg, po bid for 19 days; format: organism-based; details: in vivo, 456 h, time 19 day
[9] = system: MGC-803; assay: Induction of cell cycle arrest in human MGC-803 cells assessed as reduction in accumulation of cells at G2/M phase at 5 to 20 uM incubated for 24 hrs by PI staining based flow cytometry analysis; format: functional; details: dose 5-20 µM
[10] = system: HGC-27; assay: Induction of apoptosis in human HGC-27 cells assessed as late apoptotic cells at 1.6 uM incubated for 48 hrs by annexin V FITC/propidium iodide staining based flow cytometry (reference value: 5.14 %); format: functional
[11] = system: HGC-27; assay: Induction of apoptosis in human HGC-27 cells assessed as late apoptotic cells at 0.1 uM incubated for 48 hrs by annexin V FITC/propidium iodide staining based flow cytometry (reference value: 5.14 %); format: functional
[12] = system: HGC-27; assay: In vivo induction of cell cycle arrest in human HGC-27 cells xenografted in BALB/c mouse assessed as increase in p27 expression at 75 to 150 mg/kg, po bid administered for 19 days and measured by immunohistochemical analysis; format: functional, organism-based; details: dose 75-150 mg/kg, time 19.0 day
[13] = Toxicity in BALB/c mouse xenografted with human HGC-27 cells assessed as monocyte level at 150 mg/kg, po bid for 19 days; format: organism-based; details: in vivo, 456 h, time 19 day
[14] = system: MGC-803; assay: Induction of apoptosis in human MGC-803 cells assessed as necrotic cells at 20 uM incubated for 48 hrs by annexin V FITC/propidium iodide staining based flow cytometry (reference value: 1.06 %); format: functional
[15] = system: HGC-27; assay: Antitumor activity against human HGC-27 cells xenografted in BALB/c mouse assessed as tumor growth inhibition at 150 mg/kg, po bid administered for 19 days; format: functional; details: HGC-27, 456 h, time 19 day, read-out: TGI
[16] = system: HGC-27; assay: Induction of apoptosis in human HGC-27 cells assessed as necrotic cells at 0.4 uM incubated for 48 hrs by annexin V FITC/propidium iodide staining based flow cytometry (reference value: 1.24 %); format: functional
[17] = system: HGC-27; assay: Induction of cell cycle arrest in human HGC-27 cells assessed as reduction in accumulation of cells at G0/G1 phase at 0.1 to 1.6 uM incubated for 24 hrs by PI staining based flow cytometry analysis; format: functional; details: dose 0.1-1.6 µM
[18] = system: HGC-27; assay: Induction of apoptosis in human HGC-27 cells assessed as upregulation in Bax expression at 0.1 to 1.6 uM incubated for 48 hrs by Western blot analysis; format: functional, cell-based; details: dose 0.1-1.6 µM
[19] = system: HGC-27; assay: Induction of cell cycle arrest in human HGC-27 cells assessed as reduction in accumulation of cells at G2/M phase at 0.1 to 1.6 uM incubated for 24 hrs by PI staining based flow cytometry analysis; format: functional; details: dose 0.1-1.6 µM
[20] = system: MGC-803; assay: Induction of cell cycle arrest in human MGC-803 cells assessed as reduction in accumulation of cells at G0/G1 phase at 5 to 20 uM incubated for 24 hrs by PI staining based flow cytometry analysis; format: functional; details: dose 5-20 µM
[21] = system: HGC-27; assay: Induction of apoptosis in human HGC-27 cells assessed as late apoptotic cells at 0.4 uM incubated for 48 hrs by annexin V FITC/propidium iodide staining based flow cytometry (reference value: 5.14 %); format: functional
[22] = Toxicity in BALB/c mouse xenografted with human HGC-27 cells assessed as platelet distribution width at 75 mg/kg, po bid for 19 days; format: organism-based; details: in vivo, 456 h, time 19 day
[23] = system: HGC-27; assay: Induction of apoptosis in human HGC-27 cells assessed as early apoptotic cells at 1.6 uM incubated for 48 hrs by annexin V FITC/propidium iodide staining based flow cytometry (reference value: 0.66 %); format: functional
[24] = system: HGC-27; assay: Induction of cell cycle arrest in human HGC-27 cells assessed as reduction in accumulation of cells at S phase at 0.1 to 1.6 uM incubated for 24 hrs by PI staining based flow cytometry analysis; format: functional; details: dose 0.1-1.6 µM
[25] = Toxicity in BALB/c mouse xenografted with human HGC-27 cells assessed as lymphocyte level at 150 mg/kg, po bid for 19 days; format: organism-based; details: in vivo, 456 h, time 19 day
[26] = system: HGC-27; assay: Induction of cell cycle arrest in human HGC-27 cells assessed as upregulation of p27 expression at 0.1 to 1.6 uM incubated for 48 hrs by Western blot analysis; format: functional, cell-based; details: dose 0.1-1.6 µM
[27] = Toxicity in BALB/c mouse xenografted with human HGC-27 cells assessed as mean platelet volume at 150 mg/kg, po bid for 19 days; format: organism-based; details: in vivo, 456 h, time 19 day
[28] = Toxicity in BALB/c mouse xenografted with human HGC-27 cells assessed as lymphocyte level at 75 mg/kg, po bid for 19 days; format: organism-based; details: in vivo, 456 h, time 19 day
[29] = Toxicity in BALB/c mouse xenografted with human HGC-27 cells assessed as hematocrit level at 150 mg/kg, po bid for 19 days; format: organism-based; details: in vivo, 456 h, time 19 day
[30] = system: HGC-27; assay: Induction of apoptosis in human HGC-27 cells assessed as necrotic cells at 1.6 uM incubated for 48 hrs by annexin V FITC/propidium iodide staining based flow cytometry (reference value: 1.24 %); format: functional
[31] = system: HGC-27; assay: Induction of apoptosis in human HGC-27 cells assessed as early apoptotic cells at 0.4 uM incubated for 48 hrs by annexin V FITC/propidium iodide staining based flow cytometry (reference value: 0.66 %); format: functional
[32] = in vitro; details: human, WI-38 cells
Description: Cytotoxicity against human WI-38 cells assessed as inhibition of cell growth incubated for 72 hrs by MTT assay

[33] = Toxicity in BALB/c mouse xenografted with human HGC-27 cells assessed as RBC level at 150 mg/kg, po bid for 19 days; format: organism-based, Erythrocyte; details: in vivo, 456 h, time 19 day
[34] = system: HGC-27; assay: In vivo induction of apoptosis in human HGC-27 cells xenografted in BALB/c mouse assessed as increase in cleaved caspase-9 expression at 75 to 150 mg/kg , po bid administered for 19 days and measured by immunohistochemical analysis; format: functional, organism-based; details: dose 75-150 mg/kg, time 19.0 day

## O=C(NCc1ccc(NC(=O)c2ccccc2N2CCCC2)cc1)OCc1cccnc1
[1]
  Activity: Active
[2]
  Activity: Active
[3]
  Activity: 12.1%
[4]
  Activity: 3.68%
[5]
  Activity: Active
[6]
  Activity: Active
[7]
  Activity: 1.59%

## O=C(NCc1ccc(NC(=O)c2cc(F)ccc2N2CCCC2)cc1)OCc1cccnc1
[8]
  Activity: 72.9 10^9/L and 90.67%
[9]
  Activity: Active
[10]
  Activity: 69.4%
[11]
  Activity: 14.2%
[12]
  Activity: Active
[13]
  Activity: 1.7 10^9/L and 2.13%
[14]
  Activity: 2.74%
[15]
  inhibition in vivo at 150 mg/kg: 68.9%
[16]
  Activity: 5.43%
[17]
  Activity: Active
[18]
  Activity: Active
[19]
  Activity: Active
[20]
  Activity: Active
[21]
  Activity: 21.3%
[22]
  Activity: 16.93
[23]
  Activity: 0.31%
[24]
  Activity: Active
[25]
  Activity: 5.77 10^9/L and 7.2%
[26]
  Activity: Active
[27]
  Activity: 6.28 fL
[28]
  Activity: 5.03 10^9/L and 6.57%
[29]
  Activity: 55.38%
[30]
  Activity: 16.9%
[31]
  Activity: 2.63%
[32]
  IC50 at 72 h: > 100 µM
[33]
  Activity: 10.34 10^12/L
[34]
  Activity: Active

— ChEMBL document CHEMBL5143508, “Design, synthesis and biological evaluation of novel o-aminobenzamide derivatives as potential anti-gastric cancer agents in vitro and in vivo” (Eur J Med Chem, 2022)
